Data on 64 compounds can be found in PubChem BioAssay AID463074 (Broad Institute, 2010).

The structures appear in SMILES notation. Calls of active or inactive are those of the source.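 The calls were made as follows: active = AC50 no more than tenfold above the top dose tested, or full inhibition at every dose with a flat fit (cut at about 19 µM in these data); inconclusive = flat curve fit with inhibition between 30% and 70%, or poor fit; inactive = AC50 more than tenfold above the top dose tested.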 Where only a bound is given, the exact number is not on record here.

This experiment concerns HMLE_sh_eGFP viability, CellTiter-Glo luminescence, 72 h. The experiment is described as follows: viability loss of HMLE_sh_eGFP cells – cell-based, luminescence, counter-screen for HMLE_sh_ECad selective toxicity project, dose response (AID 463074).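 Also: counterscreen control line to flag general toxicity for the HMLE_sh_ECad screen; potency for loss of viability as luminescence drops below DMSO wells.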 Background: A counterscreen serves to expose hits that act by an unwanted route or on another target.
`Cc1ccc(/C=N/NC(=O)c2ccc3c(c2)OCCO3)s1`: the AC50 was 2.49 µM.

As for `CN1CCN(C2=Cc3ccc(Cl)cc3Sc3ccc(F)cc32)CC1`, the concentration at half-maximal activity (AC50) was 6.74 µM. Consider `C=CCOc1cccc(/C=C2\C(=O)N(Cc3ccc(C)cc3)C(C)=C2C(=O)OC)c1`, for which the AC50 is 7.24 µM. In the case of `Cc1c(C2(O)CCCCC2)[nH]c2ccc(C(F)(F)F)cc12`, the half-maximal activity concentration (AC50) was 6.11 µM. Under `CCN1CCN(Cc2ccc(NC(=O)c3cc(NC(=O)c4cnn(-c5ccccc5)c4N)cc(OC)c3)cc2C(F)(F)F)CC1` stands 6.76 µM; under `CC(C)(C)c1cc(C(=O)N/N=C/c2ccccc2O)n(-c2ccccc2)n1`, 4.41 µM; under `C[C@@H]1O[C@@H](O[C@H]2C[C@@H](O)[C@]3(CO)[C@H]4[C@H](O)C[C@]5(C)[C@@H](C6=CC(=O)OC6)CC[C@]5(O)[C@@H]4CC[C@]3(O)C2)[C@H](O)[C@H](O)[C@H]1O`, under 0.16 µM.

Regarding `CCCCNc1c(-c2ccc(OC)c(SC(C)CC)c2)nc2ccc(C)cn12` (centres undefined), the AC50 is 6.78 µM. Under `Cc1ccc(C(=O)N2N=C(c3ccc(Br)cc3)CC2c2ccccc2O)cc1` (centres undefined) stands 3.54 µM. For `COC(=O)c1c(NC(=O)c2ccco2)sc2c1CCC2`, the AC50 was > 19.5 µM (inactive). Under `C=C(CC[C@@H](O)C(C)(C)O)[C@H]1CC[C@]2(C)[C@@H]1CCC1[C@@]3(C)CC[C@H](O)C(C)(C)C3CC[C@]12C` (some centres undefined) stands 1.13 µM; under `COc1ccc2nc(C)cc(SCC(=O)N/N=C/c3ccc(O)cc3O)c2c1`, 2.33 µM; under `Cc1sc(-n2c(C)cc(/C=C3\SC(=S)NC3=O)c2C)c(C#N)c1C`, 4.72 µM.

For `CCN(Cc1ccccc1)c1ccc(/C=N/N=C(N)N)cc1`, the AC50 was 3.16 µM. Under `O/N=C(\c1ccc(Cl)cc1Cl)c1ncc(C(F)(F)F)cc1Cl` stands 13.9 µM; under `Cc1ccc(S(=O)(=O)Nc2ccc3c(c2)CC(=O)N([C@H](C)CO)C[C@@H](C)[C@H](CN(C)Cc2ccc(-c4ccccc4)cc2)O3)cc1`, 2.29 µM. As for `Cc1ccc(C(=O)CSC2=C(C#N)C(c3ccco3)C3=C(CC(C)(C)CC3=O)N2)cc1` (centres undefined), the AC50 was 3.33 µM. Under `Cc1cccc(CNc2ccc(C(CC(N)=O)NC(=O)Cc3cccc4ccccc34)cc2[N+](=O)[O-])c1` (centres undefined) stands 13.7 µM; under `COc1ccccc1NC(=O)c1ccc(S(=O)(=O)N2CCCC(C)C2)cc1` (centres undefined), > 19.5 µM (inactive); under `c1ccc(-c2c(-c3ccccc3)n(Cc3ccco3)c3ncnc(NCCCn4ccnc4)c23)cc1`, 6.74 µM. For the compound `CCN(CC)CCNC(=O)c1[nH]c2ccc(OCc3ccccc3)cc2c1C`, the concentration at half-maximal activity (AC50) was 1.81 µM. The value for `O=Cc1cc2ccccc2nc1SCc1ccc(Cl)cc1` was 5.69 µM. For the compound `COc1ccc(NC(=O)c2cccc(-c3ccc(O)cc3)c2)cn1`, the AC50 was 7 µM.

In the case of `Cc1ccc(F)c(NC(=O)/C(C#N)=C(\O)c2ccc(C(C)(C)C)cc2)c1`, the AC50 is 8.58 µM. The value for `COc1ccc(NS(=O)(=O)c2ccc(O)c(NC(=O)c3cc4c(C)nn(-c5ccc(F)cc5)c4s3)c2)cc1` was 2.49 µM; that for `COC(=O)c1ccc(COc2ccccc2/C=C(\C#N)C(=O)Nc2c(C)cccc2C)cc1` was 2.86 µM; that for `C/C(=N/NC(=O)c1ccc(-c2ccccc2)cc1)c1cc(O)cc(O)c1` was 3.85 µM. Under `Cc1c(-c2cccc(Cl)c2)nc2ccccc2c1C(=O)OC/C(O)=C(\C#N)c1nc2ccccc2[nH]1` stands 3.12 µM; under `COc1cccc(Nc2nc(-c3ccccc3)nc3ccccc23)c1`, 7.67 µM; under `O=[N+]([O-])c1cccc(-c2csc(Nc3ccccc3)n2)c1`, 3.88 µM. For the compound `C[C@]12CC[C@H]3[C@@H](CC[C@]4(O)C[C@@H](O)CC[C@]34C=O)[C@@]1(O)CC[C@@H]2C1=CC(=O)OC1`, the concentration at half-maximal activity (AC50) was 0.446 µM. Regarding `COc1cccc(S(=O)(=O)NCc2ccc(C(=O)Nc3cccc(Cl)c3)cc2)c1`, the AC50 is 4.74 µM. The value for `O=C(O)c1cc(O)ccc1NC(=O)C(c1ccccc1)c1ccccc1` was > 19.5 µM (inactive); that for `O=C(Nc1ccc(Cl)cc1)Nc1nnc(-c2ccncc2)s1` was 2.42 µM. The value for `CCOC(=O)c1sc(NC(=O)c2cc(-c3ccccc3C)nc3ccccc23)c(C#N)c1C` was 5.17 µM; that for `COc1ccc(CCCC(=O)N/N=C/c2cccc(OC)c2O)cc1C` was 3.13 µM; that for `NCCc1ccc(OCc2ccccc2)c(OCc2ccccc2)c1` was 13.6 µM. Turning to `CC(C)(C)c1ccc(C(=O)CC(Sc2ccc(Cl)cc2)C(=O)O)cc1` (centres undefined), the AC50 is 9.07 µM. Consider `COc1cc(F)c(C2=CC(=O)C[C@H](c3ccc(Cl)cc3)C2)cc1F`, for which the AC50 is 3.48 µM. Under `Cc1cccc(NC(=O)c2cc(-c3cc(C)cc(C)c3O)n[nH]2)c1` stands 4.2 µM; under `CN(Cc1cnc2nc(N)nc(N)c2n1)c1ccc(C(=O)N[C@@H](CCC(=O)O)C(=O)O)cc1`, under 0.16 µM.

In the case of `Cc1cccc(Nc2nc(-c3ccc(O)cc3O)cs2)n1`, the concentration at half-maximal activity (AC50) is 7.5 µM. The value for `Cc1ccc(-n2nc(C)c3c(C)c(CCC(=O)Nc4ccc(CN5CCCC5)cc4)c(C)nc32)cc1` was 3.79 µM.

As for `CCN1CCN(CCCNC(=O)c2ccc3c(c2)NC(=O)/C(=C\c2cccc(C)c2)S3)CC1`, the AC50 was 3.62 µM. Under `CCCCCCc1cc2cc(C(=O)Nc3ccccc3)c(=O)oc2cc1O` stands 2.01 µM. The value for `COc1c(CC=C(C)C)cc(C2CC(=O)c3c(O)cc(O)cc3O2)cc1CC=C(C)C` (centres undefined) was 3.65 µM; that for `Cc1cc(C)c(O)c(-c2n[nH]c3c2C(c2cccc(O)c2)N(Cc2ccco2)C3=O)c1` (centres undefined) was 6.73 µM; that for `Cc1ccc(C)c(NC(=O)c2cc(-c3ccccc3)nn2-c2ccccc2)c1` was 6.27 µM. Under `Cn1cccc1/C=C1\SC(=S)N(Nc2ccccc2)C1=O` stands 2.31 µM; under `Cc1cc2ccccn2c1C(=O)c1ccc([N+](=O)[O-])o1`, 5.71 µM. Turning to `Cc1nc(-c2ccccc2)sc1C(=O)/C=C/c1ccc(Cl)cc1`, the AC50 is 7.62 µM. The value for `O=C(N/N=C/c1cc(Br)ccc1O)C(=O)Nc1ccccc1OC(F)(F)C(F)F` was 3.6 µM; that for `Cc1c(CCOC(=O)C2C3CC4CC(C3)CC2C4)sc[n+]1CC(=O)c1ccc(Br)cc1` (centres undefined) was 2.44 µM. Under `COc1ccc(CNCC(O)COc2ccc(C(C)(C)c3ccccc3)cc2)cc1` (centres undefined) stands 3.22 µM; under `COc1cc(C2NCC(c3ccc(Cl)cc3Cl)c3c2[nH]c2ccccc32)cc(OC)c1OC` (centres undefined), 18.7 µM; under `CN(CC(=O)Nc1ccccc1Cl)C(=O)c1cccc(-n2cccc2)c1`, > 19.5 µM (inactive). The value for `C=C(CC1([C@@H](NP(=O)(c2ccccc2)c2ccccc2)[C@H]2C[C@@H]2CCCC)CC1)c1ccccc1` was 4.57 µM; that for `CN(C)CCNC(=O)COc1ccc(C23CC4CC(CC(C4)C2)C3)cc1` was 4.09 µM; that for `CCC(c1nnnn1Cc1ccco1)N1CCN(c2cc(Cl)ccc2C)CC1` (centres undefined) was 4.04 µM. With `Cc1ccc(/C=N/Nc2cc(C)nc(NCc3ccccc3)n2)cc1`, the AC50 was 7.16 µM. The value for `CCc1ccc2nc(SCC(=O)Nc3ccccc3N3CCOCC3)c(C#N)cc2c1` was 2.73 µM.

With `O=C(Nc1ccc(Cl)cc1)N1CCCN(c2ccc(C(F)(F)F)cc2[N+](=O)[O-])CC1`, the AC50 is 6.57 µM. Under `CCCCCCOc1ccc(OC(=O)c2cccnc2)cc1` stands 10.1 µM; under `CCOC(=O)c1nn(-c2ccc(F)cc2)c(-c2ccccc2)c1C(=O)c1ccccc1`, 11.8 µM.

By AC50 is commonly meant the midpoint of the concentration-response curve, whichever way the signal moves.
